Source: PMC10535379 (Viruses, 2023)
Entries after “also recorded” stand apart in the source; their conditions may differ. Where a name gives a salt, the structure may show the parent alone. Read-outs that look alike come from different tables or passages of the source.

How the values were obtained:
FMDV serotype A (NP05) [1] = experiment: microbe, parasite or virus in culture; type: cell-based, foot-and-mouth disease virus; details: for EC50: Foot-and-mouth disease virus, BHK-21, read-out: EC50 Co-Treatment
in vitro = details: hamster
FMDV serotype A (NP05) [2] = experiment: microbe, parasite or virus in culture; type: cell-based, foot-and-mouth disease virus; details: for EC50: Foot-and-mouth disease virus, BHK-21, read-out: EC50 Pre-Treatment
FMDV serotype A (NP05) [3] = system: FMDV serotype A (NP05)
Saccharomyces cerevisiae = details: cited from earlier work
FMDV serotype A (NP05) [4] = type: cell-based, foot-and-mouth disease virus; details: for Virucidal effect: 50 µM, 0 min
[5] = system: Schizosaccharomyces pombe; details: cited from earlier work
FMDV 3Cpro = FMDV 3Cpro (Foot-and-mouth disease virus, UniProt P03306); experiment: cell-based
Sequence of FMDV 3Cpro (P03306 1650-1862 limits assumed): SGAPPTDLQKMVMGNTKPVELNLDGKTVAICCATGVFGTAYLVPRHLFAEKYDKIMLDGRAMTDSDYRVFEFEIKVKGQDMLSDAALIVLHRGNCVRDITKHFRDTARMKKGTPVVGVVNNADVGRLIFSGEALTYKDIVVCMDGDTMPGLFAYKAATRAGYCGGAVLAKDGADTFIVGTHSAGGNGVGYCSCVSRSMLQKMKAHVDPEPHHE

FMDV serotype A (NP05) [6] = experiment: in vitro; details: hamster
FMDV serotype A (NP05) [7] = type: cell-based, foot-and-mouth disease virus
FMDV serotype A (NP05) [8] = experiment: microbe, parasite or virus in culture; details: Foot-and-mouth disease virus, BHK-21, read-out: EC50 Post Entry
HEK-293T cells = details: human
BHK-21 cells = details: hamster
FMDV serotype A (NP05) [9] = type: cell-based, foot-and-mouth disease virus; remark: listed apart in the source
FMDV = details: cited from earlier work
carboxypeptidase B = details: cited from earlier work
[10] = system: human respiratory syncytial virus (RSV); details: read-out: IC50 against RSV; cited from earlier work
HEP-2 cells = details: human; cited from earlier work
[11] = HEK-293T, read-out: Inhibition of FMDV 3Cpro

COc1cc(/C=N/Nc2nc3c([nH]2)c(=O)n(C)c(=O)n3C)ccc1O [NSC64672, 8-[(2E)-2-[(4-hydroxy-3-methoxyphenyl)methylidene]hydrazinyl]-1,3-dimethyl-7H-purine-2,6-dione]
EC50 Co-Treatment (FMDV serotype A (NP05) [1]): I | CC50 (in vitro): 130 ± 2.3 µM | EC50 Pre-Treatment (FMDV serotype A (NP05) [2]): I | EC50 Post Entry (FMDV serotype A (NP05) [3]): I

Cc1ccc([N+](=O)[O-])cc1NC(=O)c1cccc([N+](=O)[O-])c1O [NSC79451, 2-Hydroxy-N-(2-methyl-5-nitrophenyl)-3-nitrobenzamide]
EC50 (FMDV serotype A (NP05) [1]): 1.56 ± 0.03 µM | Inhibition of Saccharomyces cerevisiae (Saccharomyces cerevisiae): none of them could inhibit | CC50 (in vitro): 32.79 ± 0.3 µM | EC50 Pre-Treatment (FMDV serotype A (NP05) [2]): I | Virucidal effect (FMDV serotype A (NP05) [4]): good inhibition at 0 min | Inhibition of Schizosaccharomyces pombe [5]: none of them could inhibit

N#Cc1cc(-c2ccccc2)[nH]c1-c1nccc2ccccc12 [NSC116640, 2-isoquinolin-1-yl-5-phenyl-1H-pyrrole-3-carbonitrile]
EC50 (FMDV serotype A (NP05) [1]): 5.74 ± 0.23 µM | CC50 (in vitro): 210.7 ± 0.17 µM | Concentration required for 80% inhibition of FMDV 3Cpro (FMDV 3Cpro): more than 40 µM | IC50 (FMDV 3Cpro): 10.8 µM | EC50 (FMDV serotype A (NP05) [2]): 7.27 ± 0.86 µM | selectivity ratio (FMDV serotype A (NP05) [6]): 73.2 | Reduction of viral titers (FMDV serotype A (NP05) [4]): 1.00–2.27 log TCID50/mL | Number of viruses (FMDV serotype A (NP05) [7]): slightly increased | Virus yield (% of viral copy numbers) (FMDV serotype A (NP05) [7]): 0–10% | EC50 (FMDV serotype A (NP05) [8]): 2.88 ± 0.17 µM | MNTD90 (maximum non-toxic dose) (HEK-293T cells): 50 µM | MNTD90 (maximum non-toxic dose) (BHK-21 cells): 50 µM | Viral load (viral copy number) reduction (FMDV serotype A (NP05) [9]): reduce the viral loads in a dose-dependent manner | Potent activity in StopGo luciferase anti-FMDV screen (FMDV): 28.18 µM

O=[N+]([O-])c1ccccc1/C=C/C=N/N=C/c1ccccc1O [NSC119805, 2-[(E)-[(E)-[(E)-3-(2-nitrophenyl)prop-2-enylidene]hydrazinylidene]methyl]phenol]
EC50 Co-Treatment (FMDV serotype A (NP05) [1]): I | CC50 (in vitro): 82.45 ± 0.4 µM | EC50 Pre-Treatment (FMDV serotype A (NP05) [2]): I | EC50 Post Entry (FMDV serotype A (NP05) [3]): I

CCN(CC)CCCC(C)NC(=O)c1ccc2c(c1)C(=O)c1ccccc1C2=O (stereo not shown) [NSC331757, N-[5-(diethylamino)pentan-2-yl]-9,10-dioxoanthracene-2-carboxamide;hydrochloride]
EC50 Co-Treatment (FMDV serotype A (NP05) [1]): I | CC50 (in vitro): 62.8 ± 0.87 µM | EC50 Pre-Treatment (FMDV serotype A (NP05) [2]): I | EC50 Post Entry (FMDV serotype A (NP05) [3]): I

Oc1ccccc1-c1nc2c3ccccc3c3ccccc3c2[nH]1 [NSC332670, 6-(1,3-Dihydrophenanthro[9,10-d]imidazol-2-ylidene)cyclohexa-2,4-dien-1-one]
EC50 (FMDV serotype A (NP05) [1]): 2.04 ± 0.02 µM | CC50 (in vitro): 65.82 ± 0.06 µM | IC50 (FMDV 3Cpro): 4.21 µM | inhibition at 10 µM (FMDV 3Cpro; [11]): ~90% | inhibition at 40 µM (FMDV 3Cpro; [11]): 100% | EC50 (FMDV serotype A (NP05) [2]): 7.18 ± 0.98 µM | selectivity ratio (FMDV serotype A (NP05) [6]): 11.1 | Reduction of viral titers (FMDV serotype A (NP05) [4]): 1.17–2.27 log TCID50/mL | Inhibition effect (FMDV serotype A (NP05) [7]): reduced; also recorded: completely lost | Viral inhibition (FMDV serotype A (NP05) [7]): great inhibition | IC50 (carboxypeptidase B): 1550 µM | EC50 (FMDV serotype A (NP05) [8]): 5.92 ± 0.2 µM | MNTD90 (maximum non-toxic dose) (HEK-293T cells): 50 µM | IC50 [10]: 11 µM | CC50 (HEP-2 cells): 15.3 µM | MNTD90 (maximum non-toxic dose) (BHK-21 cells): 50 µM | Viral load (viral copy number) reduction (FMDV serotype A (NP05) [9]): reduce the viral loads in a dose-dependent manner

N#CC(c1ccccc1)N(CCCCCCN(C(=O)c1ccccc1)C(C#N)c1ccccc1)C(=O)c1ccccc1 (stereo not shown) [NSC681744, N-[6-[benzoyl-[cyano(phenyl)methyl]amino]hexyl]-N-[cyano(phenyl)methyl]benzamide]
EC50 (FMDV serotype A (NP05) [1]): 4.83 ± 0.08 µM | Inhibition of Saccharomyces cerevisiae (Saccharomyces cerevisiae): none of them could inhibit | CC50 (in vitro): 124 ± 0.5 µM | EC50 Pre-Treatment (FMDV serotype A (NP05) [2]): I | Virucidal effect (FMDV serotype A (NP05) [4]): good inhibition at 0 min | Inhibition of Schizosaccharomyces pombe [5]: none of them could inhibit
